How the values were obtained:
[1] = test system: pancreatic ductal adenocarcinoma cells; conditions: ref [31]; cited from earlier work
P2X7 in Neuro-2a cells [2] = test: ATP-induced YO-PRO-1 uptake (P2X7 pore formation); type: cell-based, mouse
Description: (§1) Neuro-2a neuroblastoma cells (ATCC® CCL-131™) were obtained from American Type Culture Collection (Manassas, VA, USA). The cells were cultivated in DMEM medium (BioloT, St. Petersburg, Russia) supplemented with 10% of fetal bovine serum (BioloT, St. Petersburg, Russia) and 1% penicillin/streptomycin (BioloT, St. Petersburg, Russia) at 37 °C and 5% CO2. Initially, cells were incubated in cultural flasks until sub-confluent (~80%). For testing, Neuro-2a cells were seeded in 96-well plates and experiments were started after 24 h.
Neuro-2a cells were seeded in 96 well plates at a density of 4 × 10^4 cells/well and incubated in DMEM for 24 h, 37 °C, 5% CO2. Then the cells were washed once with HBSS and filled with 180 μL of the same buffer. YO-PRO-1 (Sigma-Aldrich, St. Louis, MO, USA, 5 μM final concentration) was loaded into the wells, the cells were incubated for 15 min at 37 °C. Further, the studied peptides were added to the cells at concentrations of 10, 1, 0.1 and 0.01 μM and incubated for 10 min at 37 °C. After that ATP (4 mM final concentration) was added and the plates were incubated for an additional 10 min. The standard P2X7R inhibitor, A438079 (Sigma-Aldrich, St. Louis, MO, USA), was used as inhibitory control. Then the cells were washed three times with the buffer solution and fluorescence intensity was measured with PHERAstar FS plate reader (BMG, LABTECH, Ortenberg, Germany) at λex = 485 nm and λem= 520 nm in the “End Point” mode. The effectiveness of compounds was evaluated relative to control without ATP.
(§2) All data were obtained in three independent replicates and calculated values were expressed as mean ± standard error of the mean (SEM). The Student’s t-test was performed using SigmaPlot 14.0 (Systat Software Inc., San Jose, CA, USA) to determine statistical significance.

Neuro-2a cells = test: Cytoprotection against ATP-induced cell death (MTT assay); type: cell-based, mouse
Description: as §1
The cytoprotective effect of peptides was assessed in Neuro-2a cells using the MTT assay. In brief, an aliquot (180μL) of cell suspension with a nominal cell density of 3 × 10^4 cells/well was dispensed into 96-well plates. The cells were incubated for 24 h in a humidified atmosphere containing 5% CO2 to allow cell attachment. At the end of the preincubation period, ATP (Sigma-Aldrich, St. Louis, MO, USA) was added to the cells at a concentration of 4 mM. Studied peptides were added to the cells at concentrations of 0.1, 1.0 or 10.0 μM for 1h prior to the addition of ATP. After incubation for 48 h at 37 °C cell viability was detected using the MTT as described previously. The standard P2X7 inhibitor, A438079 (Sigma-Aldrich, St. Louis, MO, USA), at a concentration of 10 μM was used as a positive control.
as §2

[3] = intrathecal; hind paw ipsilateral to the nerve injury; cited from earlier work
Excerpt: (§3) Activated P2X7 has also been reported to alter reactive oxygen species (ROS) in microglia/macrophages as was shown, for example, in primary rat microglial cells. In cultured neurons of the dorsal horn of the spinal ...

[4] = test system: cultured neurons of the dorsal horn of the spinal cord; conditions: cited from earlier work
Excerpt: as §3

[5] = test system: spontaneously hypertensive rats; conditions: intracerebroventricular; ref [8]; cited from earlier work
Excerpt: as §3

[6] = ref [14],[17],[18],[21],[38],[39],[40], cited from earlier work
Excerpt: (§4) The studied peptides are analogs of sea anemone Kunitz-type peptides and attract our attention due to their wide spectrum of biological activity and ability to interact with important molecular targets.

TRPV1 receptor = conditions: modulator of TRPV1, depends on nature and strength of activation stimuli; ref [14],[17],[18],[21],[38],[39],[40]; cited from earlier work
Excerpt: as §4

P2X7 in Neuro-2a cells [7] = test: ATP-induced Ca2+ influx (Fluo-8 AM); type: cell-based, mouse; conditions: for reduction of calcium level: 30 min pre-incubation, 1 mM ATP
Description: as §1
Neuro-2a cells were seeded in 96-well plates at a density of 4 × 10^4 cells/well and incubated in DMEM for 24 h at 37 °C, 5% CO2. Then the cells were washed twice with culture medium and loaded with 5 μM Fluo-8 AM (Abcam, Cambridge, UK) dye and 1 μM Pluronic® F-127 (Sigma-Aldrich, St. Louis, MO, USA), and incubated for 40 min at 37 °C in HBSS: 140 mM NaCl, 5 mM KCl, 0.8 mM MgCl2, 2 mM CaCl2, 10 mM glucose, 10 mM HEPES, pH 7.4. Then the cells were washed two times with the same solution but without the fluorescent dye and treated with the studied peptides for 30 min at RT in the dark. In some experiments Ca^2+-free medium was used: 140 mM NaCl, 5 mM KCl, 0.8 mM MgCl2, 10 mM glucose, 10 mM HEPES, 5 mM EGTA, pH 7.4. ATP (1 mM final concentration) was added using a microinjector (20 μL/well) 10 s later the baseline recording and the readings were taken up to 50 s in 1 s intervals. The standard P2X7 inhibitor, A438079 (Sigma-Aldrich, St. Louis, MO, USA), was used as inhibitory control. Ionomycin (Sigma-Aldrich, St. Louis, MO, USA) and BHQ were used to generate a generic calcium signal in cells. 2,5,-di(t-butyl) hydroquinone (BHQ) was synthesized and kindly provided by Dr. Polonik S.N. (PIBOC FEBRAS). Fluo-8 was excited at 485 nm, and the emission at 520 nm was measured with a PHERAstar®FS plate reader (BMG LABTECH, Ortenberg, Germany). The data were processed by MARS Data Analysis v. 3.01R2 (BMG Labtech, Ortenberg, Germany). Mean values and standard error of peak height calcium were calculated.
as §2

Compound: Clc1cccc(-c2nnnn2Cc2cccnc2)c1Cl [A438079, reference compound]
- ATP-induced pore formation and cell death [1]: very modest effects on ATP-induced pore formation and cell death
- inhibition of YO-PRO-1 dye penetration vs ATP alone (P2X7 in Neuro-2a cells [2]; 10 μM A438079 pre-incubation, 4 mM ATP, mean ± SE, n = 3): up to 32%
- ATP-induced uptake of YO-PRO-1 (P2X7 in Neuro-2a cells [2]; 0.01–10 μM peptides or 10 μM A438079, 10 min pre-incubation, 4 mM ATP): attenuated dye accumulation
- increase in cell viability compared with ATP alone (Neuro-2a cells; pre-incubation with 10 μM A438079, then 4 mM ATP, 48 h, mean ± SE, n = 3): 18.2 ± 2.8%
- mechanical hypersensitivity [3]: suppressed the development of mechanical hypersensitivity
- ATP or Bz-ATP-induced ROS production [4]: eliminated

Compound: Cc1nc(N=Nc2ccc(S(=O)(=O)O)cc2S(=O)(=O)O)c(COP(=O)(O)O)c(C=O)c1O [PPADS]
- infarct volume and number of irreversibly damaged cells [5]: reduced infarct volume and the number of irreversibly damaged cells

Compound: APHC3: recombinant Kunitz-type peptide from H. magnifica (=H. crispa), UniProtKB C0HJF3 (GSICLEPKVVGPCTAYFPRFYFNSETGKCTPFIYGGCEGNGNNFETLRACRGICRA; left off: thioredoxin, end not stated, cleaved)
- entry of YO-PRO-1 into cells (summary in discussion) (P2X7 in Neuro-2a cells [2]; short-term effect): regulating the entry of low molecular weight fluorescent dye YO-PRO-1 into cells
- activity in models of inflammatory diseases ([6]; ex vivo and in vivo): potent activity
- anti-inflammatory and analgesic activity [6]: significant anti-inflammatory and analgesic activity
- EC50 (TRPV1 receptor): ~18 nM
- reduction of calcium level (P2X7 in Neuro-2a cells [7]; 0.1 μM peptide, mean ± SE, n = 3): 53.2 ± 24.95%
- reduction of calcium level (P2X7 in Neuro-2a cells [7]; 0.1–10 μM peptide): significantly reduced the calcium level
- effect on Ca2+ influx (summary in discussion) (P2X7 in Neuro-2a cells [7]; short-term effect): a significant effect on Ca^2+ influx into cells
- protection from ATP-induced death (Neuro-2a cells; long-time application of ATP (4 mM, 48 h)): partially protected neuroblastoma cells from ATP-induced death
